Data on five compounds can be found in patent US20070299110A1, “Novel Tetrazole Derivatives as Positive Allosteric Modulators of Metabotropic Glutamate” (priority 2004, published 2007).

One data set concerns Male C57BL6/j mice. The experiment in a line: Amphetamine-induced locomotor activity in mice (amphetamine model of schizophrenia). The class given is in vivo. The conditions noted are these: 30 mg/kg ip, 30 minutes before amphetamine sulphate 3.0 mg/kg s.c., distance traveled measured for 60 minutes, p<0.01 vs vehicle-amphetamine. An excerpt:
Amphetamine-induced increases in locomotor ambulation are well known and are widely used as a model of the positive symptoms of schizophrenia. This model is based on evidence that amphetamine increases motor behaviors and can induce a psychotic state in humans (Yui et al. (2000) Ann NY Acad Sci 914:1-12). Further, it is well known that amphetamine-induced increases in locomotor activity are blocked by antipsychotics drugs that are effective in the treatment of schizophrenia (Ant (1995) Eur J Pharmacol 283:55-62). […]
Assessment of locomotor (ambulatory) activity: The effects of compounds on amphetamine-induced locomotor activation in mice were tested. […] Locomotor activity (ambulations) was monitored by a videotracking system (VideoTrack, Viewpoint, Champagne au Mont d'Or, France) that recorded the ambulatory movements of mice. […] Mice were placed into the locomotor boxes immediately after the amphetamine injection and their locomotor activity, defined as the distance traveled in centimeters (cm), was measured for 60 minutes. […]
Statistical analyses: Statistical analyses were performed using GraphPad PRISM statistical software (GraphPad, San Diego, Calif., USA). Data were analyzed using an unpaired t-test. […]

As to `O=C(c1ccc(F)cc1)N1CCCC(n2nnc(-c3ccc(F)cc3)n2)C1` (stereo not shown) [Example 2, (4-Fluoro-phenyl)-{3-[5-(4-fluoro-phenyl)-tetrazol-2-yl]-piperidin-1-yl}-methanone], the melting point – broadly, the temperature of the solid-liquid transition – was in the range of 137 to 139 °C. Same read-out and setting: the value for `O=C(c1ccc(F)c(F)c1)N1CCC[C@H](n2nnc(-c3ccc(F)cc3)n2)C1` [Example 24, (3,4-Difluoro-phenyl)-{(S)-3-[5-(4-fluoro-phenyl)-tetrazol-2-yl]-piperidin-1-yl}-methanone] was 123 to 128 °C. The compound `O=C(c1ccc(F)nc1)N1CCC[C@H](n2nnc(-c3ccc(F)cc3)n2)C1` [Example 21, {(S)-3-[5-(4-Fluoro-phenyl)-tetrazol-2-yl]-piperidin-1-yl}-(6-fluoro-pyridin-3-yl)-methanone] showed a melting point of 109 to 110 °C. On the same count and under the same terms, next, `O=C(c1ccc(F)cc1F)N1CCC[C@H](n2nnc(-c3ccc(F)cc3)n2)C1` [Example 25, (2,4-Difluoro-phenyl)-{(S)-3-[5-(4-fluoro-phenyl)-tetrazol-2-yl]-piperidin-1-yl}-methanone]: 65 to 68 °C.

In turn, `O=C(c1ccc(F)cc1)N1CCC[C@H](n2nnc(-c3ccc(F)cc3)n2)C1` [Example 1, (4-Fluoro-phenyl)-{(S)-3-[5-(4-fluoro-phenyl)-tetrazol-2-yl]-piperidin-1-yl}-methanone] displayed a melting point of 109 to 110 °C. Also, the “increase in locomotor activity induced by amphetamine” value in the data set with Male C57BL6/j mice (listed as #1) is on record as “significantly attenuate”. Further, the “increase in locomotor activity induced by amphetamine” value in the data set with Male C57BL6/j mice (listed as example 1) is given as “significantly attenuated”.
